Series [1] is described as follows: MK-7 level in plasma after oral ingestion by healthy adults (HPLC). The series is classed as in vivo, human (healthy adults). The procedure:
The measurement of the amounts of MK-7, MK-4, and vitamin K1 by the high-performance liquid chromatography (HPLC) makes use of the phenomenon that vitamin K is reduced by a platinum-alumina catalyst into a hydroquinone compound and made to form a fluorescent substance. To be more specific, this measurement is carried out under the following conditions.
Then, five healthy adults were each caused to ingest 1 g of the dry cells at 10 o'clock every morning. After the elapse of a prescribed interval, blood was collected from each of the healthy adults and was tested for MK-7 level in the plasma. The time-course changes of MK-7 level in the plasma were investigated.
Five healthy adults were each caused to ingest 1 g of dry cells (containing 1.8×10^10 live cells) of Nitto strain (made by Nitto Yakuhin Kogyo K.K. in Kyoto) at 10 o'clock every morning. Then, blood was collected from the adults along the course of time. The plasma was separated from the collected blood and tested for MK-7 level in the plasma in the same manner as in Example 1.
As a control, five healthy adults were caused to ingest purified MK-7 in place of the dry cells of Bacillus subtilis natto mentioned above. The plasma similarly obtained from each of the healthy adults was tested for MK-7 level in the plasma.
The cultured product thus obtained was washed with distilled water and then freeze-dried. Five healthy adults (A to E) were each caused to ingest an enteric capsule in which 1 g of freeze-dried product (containing 5×10^11 cells/g of dried product) was filled. In this case, the MK-7 content was determined by the Soxhlet-HPLC method method, to find to be 708.0 μg/g of dried product. At prescribed points, blood was collected from the adults along the course of time. The plasma MK-7 level was tested in the same manner as in Example 1.
Five healthy adults (21 to 63 years old, male) requested to abstain from breakfast were each made to ingest 1,000 μg of the water-soluble vitamin K derivative containing the water-soluble MK-7 derivative prepared in Example 9 at 10 o'clock in the morning. Blood was collected from the healthy adults along the course of time after the ingestion and measured for the level of the water-soluble MK-7 derivative in plasma. As a control, the experiment was repeated with the ingestion of 1,000 μg of purified MK-7 instead.

The nature of series [2]: Photostability: amount of MK-7 on exposure to the light from a fluorescent lamp. It counts as physicochemical. The conditions noted are these: room temperature. The procedure: This dry MK-7 was exposed to the light from a fluorescent lamp at room temperature for 5 hours. In this case, the amount of MK-7 was measured along the course of time in the same manner as in Example 6. The results are shown in FIG. 7 (indicated by empty circle (◯) marks).
The fat-soluble MK-7 thus prepared was dried to obtain a dry product of MK-7. This dry product of MK-7 was irradiated with the light from a fluorescent lamp at room temperature for 5 hours and then tested for the fat-soluble MK-7 content in the same manner as in Example 6. The results are shown in FIG. 7 (indicated by filled square (▪) marks).

[3] abbreviates: oral, 1 g dry cells (about 1.8 × 10^10 cells/g) or about 51.0 μg purified MK-7, average ± SD, n = 5.

For the compound `CC(C)=CCC/C(C)=C/CC/C(C)=C/CC/C(C)=C/CC/C(C)=C/CC/C(C)=C/CC/C(C)=C/CC1=C(C)C(=O)c2ccccc2C1=O` [Purified MK-7, menaquinone-7], the “Level in plasma on the 24th hour after the ingestion” value in series [1] (Example 14, oral 1,000 μg) came to 3.2 ± 2.3 ng/mL. In addition, in series [1] (before ingestion, oral, 1 g dry cells (about 1.8 × 10^10 cells/g) or about 51.0 μg purified MK-7, average ± standard deviation, n = 5), the “Concentration of MK-7 in plasma (after the elapse of) 0 hour” value stood at 1.3 ± 1.1. For the same compound, in series [1] (setting [3]), the “Concentration of MK-7 in plasma (after the elapse of) 4 hours” value worked out at 11.2 ± 2.8, the “Concentration of MK-7 in plasma (after the elapse of) 8 hours” value is 7.3 ± 1.6, the “Concentration of MK-7 in plasma (after the elapse of) 12 hours” value amounted to 4.3 ± 1.0 and the “Concentration of MK-7 in plasma (after the elapse of) 24 hours” value is reported as 2.2 ± 1.0. In addition, in series [1] (setting [3]), the “Concentration of MK-7 in plasma (after the elapse of) 32 hours” value was 1.4 ± 0.7 ^┘ and the “Concentration of MK-7 in plasma (after the elapse of) 48 hours” value is 1.4 ± 0.9 ^┘.

In the case of `CC(C)=CCC/C(C)=C/CC/C(C)=C/CC/C(C)=C/CC/C(C)=C/CC/C(C)=C/CC/C(C)=C/CC1=C(C)C(=O)c2ccccc2C1=O` [fat-soluble MK-7], the “Exposure time to the fluorescent lamp after which the amount of MK-7 could not be measured” value in series [2] is “about 3 hours”.

(Values after patent US6677141B2, “Edible compositions of Bacillus subtilis natto cells containing water-soluble vitamin K” (Honda Trading Corporation, priority 1998, dated 2004).)
